# Measured values: patent US20210255184A1, “Biosensor Device and Methods” (The New Zealand Institute for Plant and Food Research …, priority 2018, published 2021)
# Biological target: T1, Or35a (Drosophila melanogaster, UniProt Q9V3Q2)
# T1 construct: his-tag; made in house; host or cells: baculovirus-infected Sf9 cells
# T1 sequence (Q9V3Q2 1-409): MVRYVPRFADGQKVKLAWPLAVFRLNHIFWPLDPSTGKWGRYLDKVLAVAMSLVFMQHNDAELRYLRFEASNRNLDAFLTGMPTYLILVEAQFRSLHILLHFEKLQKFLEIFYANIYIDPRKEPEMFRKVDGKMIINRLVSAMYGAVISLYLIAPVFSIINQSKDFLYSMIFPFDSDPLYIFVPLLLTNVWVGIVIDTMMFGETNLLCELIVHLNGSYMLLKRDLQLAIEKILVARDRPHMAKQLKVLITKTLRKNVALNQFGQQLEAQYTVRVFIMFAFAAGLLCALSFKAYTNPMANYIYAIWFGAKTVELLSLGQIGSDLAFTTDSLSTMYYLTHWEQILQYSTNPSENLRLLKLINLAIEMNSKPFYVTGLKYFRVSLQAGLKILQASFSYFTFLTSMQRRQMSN
# Assay: EIS sensor, Or35a liposomes on gold electrode
# Assay type: biochemical
# Conditions: EIS dose response
# Experimental: PBS (pH=7.4) was used as an electrolyte to conduct electrochemical measurements. PBS buffer was degassed for about 30 minutes prior to electrochemical measurements. Odorant solutions of concentration ranging from 1 aM to 1 μM were prepared by sequential dilution in PBS solution containing 1% DMSO. OR immobilized electrodes were incubated in relevant odorant solution for ˜30 minutes each and washed gently with PBS before EIS measurements.
# EIS measurements were done in a 3 electrode cell containing Ag/AgCl (3 M NaCl, 0.209 V vs. SHE) reference electrode, coiled platinum wire as a counter electrode and the gold disk as a working electrode at a fixed voltage of −0.7 using PalmSens potentiostat. Degassed PBS was used as an electrolyte.
# EIS measurements were performed on gold electrodes functionalised with OrX liposomes (either Or10a or Or22a), OrX/Orco liposomes, or empty liposomes prior to and after target ligand or control ligand incubation with increasing concentrations (1 aM to 100 μM). Dose response curves were obtained by defining sensor response as −(ΔRp/R^op) versus log[C(Ligand)]. FIG. 4a presents the EIS response in terms of Nyquist plot for the Or10a liposome functionalized sensors when exposed to a solution containing one of the known target ligands of Or10a, methyl salicylate, at various concentrations. […] The dose response curve (FIG. 4b) was obtained by plotting the change in polarization resistance −(ΔRp/R^op) versus log[conc(Ligand)], as the sensor response. Here, Rp is the polarization resistance after Or10a liposome-target interaction and R^op is the polarization resistance before Or10a liposome-target interaction.
# Prior to use, 1 mg liposomes (500 μl at 2 mg/ml) were defrosted on ice and then destabilized by incubating with 0.2% CHAPS for 15 min at room temperature. […] All Or35a/Orco integrated liposomes samples were analysed by Western blot before being aliquoted and stored at −80° C. Integration of Or35a/Orco into liposomes was assessed by density gradient ultracentrifugation (DGU) using Accudenz (Accurate Chemical & Scientific Corporation, USA). […]
compound,measurement,value
COC(=O)c1ccccc1O [methyl salicylate],sensor response to control ligand,negligible response
